{"source": "patent US12036197B2", "about": "“Composition for improving bioavailability of drugs” (priority 2019, dated 2024)", "key": {"[1]": {"details": "rat, in vivo"}, "in vivo [2]": {"test": "in vivo", "parameters": "species or system SD rats", "details": "male, SD, rat", "from_the_text": "The composition of the present invention: polyethylene glycol 4000, carbomer, chitosan oligosaccharide, and citric acid, in a weight ratio of 19:6:6:60.\n(§1) Laboratory Animals: Adult Male SD Rats.\n(§2) The plasma was collected and subjected to quick freezing."}, "[3]": {"parameters": "species or system SD rats", "details": "rat, in vivo", "from_the_text": "as §1, §2"}, "in vivo [4]": {"test": "in vivo", "details": "male, SD, rat"}, "[5]": {"test": "PK test for small-intestinal administration of rInsulin (ELISA)", "type": "in vivo", "details": "SD rats; small-intestinal administration at 200 μg/kg without composition", "from_the_text": "as §1, §2"}}, "note": "Where two headings read alike, the source gives them in different places. Where a SMILES comes first, the peptide text is derived from it. Bridges are numbered along the chain shown (N, C = ends). [ ]: non-standard residue; d: D form.", "data": [{"molecule": "CC[C@H](C)[C@H](NC(=O)[C@H](CO)NC(=O)[C@H](CCCCN)NC(=O)CNC(=O)[C@H](CCCCN)NC(=O)[C@H](CC(=O)O)NC(=O)[C@H](Cc1cnc[nH]1)NC(=O)[C@H](CC(C)C)NC(=O)[C@H](CC(C)C)NC(=O)[C@H](CCC(N)=O)NC(=O)[C@H](Cc1cnc[nH]1)NC(=O)[C@H](CCC(=O)O)NC(=O)[C@H](CO)NC(=O)[C@@H](NC(=O)[C@H](C)N)C(C)C)C(=O)N[C@@H](CCC(N)=O)C(=O)N[C@@H](CC(=O)O)C(=O)N[C@@H](CC(C)C)C(=O)N[C@@H](CCCNC(=N)N)C(=O)N[C@@H](CCCNC(=N)N)C(=O)N[C@@H](CCCNC(=N)N)C(=O)N[C@@H](CCC(=O)O)C(=O)N[C@@H](CC(C)C)C(=O)N[C@@H](CC(C)C)C(=O)N[C@@H](CCC(=O)O)C(=O)N[C@@H](CCCCN)C(=O)N[C@@H](CC(C)C)C(=O)N[C@@H](CC(C)C)C(=O)NC(C)(C)C(=O)N[C@@H](CCCCN)C(=O)N[C@@H](CC(C)C)C(=O)N[C@@H](Cc1cnc[nH]1)C(=O)N[C@H](C(=O)N[C@@H](C)C(N)=O)[C@@H](C)O", "note": "[Abaloparatide]", "values": [{"measurement": "bioavailability", "setting": "[1]", "result": 1.66, "unit": "%"}]}, {"molecule": "CCNC(=O)[C@@H]1CCCN1C(=O)[C@H](CCCNC(=N)N)NC(=O)[C@H](CC(C)C)NC(=O)[C@@H](CC(C)C)NC(=O)[C@H](Cc1ccc(O)cc1)NC(=O)[C@H](CO)NC(=O)[C@H](Cc1c[nH]c2ccccc12)NC(=O)[C@H](Cc1c[nH]cn1)NC(=O)[C@@H]1CCC(=O)N1", "note": "[Leuprolide]", "values": [{"measurement": "bioavailability", "setting": "in vivo [2]", "result": 1.32, "unit": "%"}]}, {"molecule": "CC[C@H](C)[C@@H]1NC(=O)[C@H](CCCNC(=N)N)NC(=O)[C@H](CC(=O)O)NC(=O)[C@H](CCSC)NC(=O)[C@H](CCCCN)NC(=O)[C@H](CCCNC(=N)N)NC(=O)CNC(=O)[C@H](Cc2ccccc2)NC(=O)[C@@H](NC(=O)CNC(=O)[C@H](CO)NC(=O)CNC(=O)[C@H](CCC(N)=O)NC(=O)[C@@H](NC(=O)[C@H](CCSC)NC(=O)[C@H](CCCCN)NC(=O)[C@@H]2CCCN2C(=O)[C@@H](N)CO)C(C)C)CSSC[C@@H](C(=O)N[C@@H](CCCCN)C(=O)N[C@H](C(=O)N[C@@H](CC(C)C)C(=O)N[C@@H](CCCN=C(N)N)C(=O)N[C@@H](CCCN=C(N)N)C(=O)N[C@@H](Cc2cnc[nH]2)C(=O)O)C(C)C)NC(=O)CNC(=O)[C@H](CC(C)C)NC(=O)CNC(=O)[C@H](CO)NC(=O)[C@H](CO)NC(=O)[C@H](CO)NC(=O)[C@H](CO)NC1=O", "note": "[Nesiritide]", "values": [{"measurement": "bioavailability", "setting": "[3]", "result": 1.22, "unit": "%"}]}, {"molecule": "CC(C)[C@@H]1NC(=O)[C@H](CCCCN)NC(=O)[C@@H](Cc2c[nH]c3ccccc23)NC(=O)[C@H](Cc2ccc(O)cc2)NC(=O)[C@@H](NC(=O)[C@H](N)Cc2ccccc2)CSSC[C@@H](C(=O)N[C@@H](Cc2c[nH]c3ccccc23)C(N)=O)NC1=O", "note": "[Vapreotide] (H-[dF]CY[dW]KVCW-NH2; disulfide 2-7)", "values": [{"measurement": "bioavailability", "setting": "in vivo [4]", "result": 1.69, "unit": "%"}]}, {"molecule": "rInsulin: Recombinant Insulin (rInsulin)", "values": [{"measurement": "blood concentration", "setting": "[5]", "result": "lower than the detection limit of ELISA"}]}]}
